# Source: ChEMBL document CHEMBL4014333, “Discovery of Small Molecules for Repressing Cap-Independent Translation of Human Vascular Endothelial Growth Factor (hVEGF) as Novel Antitumor Agents” (J Med Chem, 2017)
# Calls of active or inactive are those of the source. No cut-off for these calls is given here.
# Columns and labels:
# [1] = species on record: Homo sapiens; assay: Selectivity ratio of Kd for biotin labeled human 5'-UGAUGAGUGUGAGGAGGA-3' RNA G-quadruplex to Kd for biotin-labeled human wild type internal ribosome entry site A RNA G-quadruplex
# [2] = tested on: Mus musculus; assay: Downregulation of VEGF-A expression in tumor of Balb/c mouse xenografted with human MCF7 cells at 7.5 mg/kg, ip qd for 20 days by immunohistochemical analysis; format: functional, organism-based
# [3] = Binding affinity to c-MYC Pu27 DNA G-quadruplex (unknown origin) at 1 uM after 24 hrs by spectrophotometric method
# [4] = Binding affinity to RNA hairpin (unknown origin) at 1 uM after 24 hrs by spectrophotometric method
# [5] = tested on: MCF7; assay: Antitumor activity against human MCF7 cells xenografted in nude Balb/c mouse assessed as tumor volume at 7.5 mg/kg, ip qd for 20 days (Rvb >700 mm3); format: functional
# [6] = Binding affinity to biotin-labeled DNA hairpin (unknown origin) by SPR analysis
# [7] = species on record: Homo sapiens; assay: Destabilization of human internal ribosome entry site A RNA G-quadruplex by CD spectral analysis
# [8] = species on record: Bos taurus; assay: Binding affinity to calf thymus DNA at 1 uM after 24 hrs by spectrophotometric method
# [9] = species on record: Homo sapiens; assay: Binding affinity to internal ribosome entry site A RNA G-quadruplex region of VEGF-A protein in CoCl2 treated human MCF7 cells assessed as VEGF-A protein induced cell migration at 3 uM preincubated for 48 hrs followed by VEGF-A protein addition measured after 12 hrs by cell scrape test relative to control
# [10] = tested on: MCF7; assay: Effect on human wild type internal ribosome entry site A RNA G-quadruplex transcription expressed in human MCF7 cells assessed as Met luciferase gene expression at 0.1875 to 1.5 uM after 20 hrs by RT-PCR analysis; format: functional, cell-based
# [11] = species on record: Homo sapiens; assay: Binding affinity to human 5'-UCGGGCCGGGAGGAGCCGCAGCCGGAA-3' […] at 1 uM after 24 hrs by spectrophotometric method
# [12] = Binding affinity to RNA (unknown origin) at 1 uM after 24 hrs by spectrophotometric method
# [13] = species on record: Homo sapiens; assay: Destabilization of human 5'-FAM-labeled 5'-UGAUGAGUGUGAGUAGUA-3' RNA up to 10 uM measured after 3 hrs by electrophoresis mobility shift assay
# [14] = tested on: MCF7; assay: Cytotoxicity against human MCF7 cells after 48 hrs relative to control; format: cell-based; conditions: mcf7, 48 h
# [15] = species on record: Homo sapiens; assay: Destabilization of human wild type 5'-FAM labeled internal ribosome entry site A RNA G-quadruplex at 2.5 to 10 uM measured after 3 hrs by electrophoresis mobility shift assay
# [16] = tested on: Mus musculus; assay: Toxicity in nude Balb/c mouse xenografted with human MCF7 cells assessed as change in body weight at 7.5 mg/kg, ip qd for 20 days; format: organism-based; conditions: in vivo, 480 h
# [17] = Inhibition of NT-647 dye-labeled BG4 binding to human wild type internal ribosome entry site A RNA G-quadruplex assessed as BG4 antibody Kd by MST analysis (reference value: 10.8 nM)
# [18] = species on record: Homo sapiens; assay: Binding affinity to 5'- FAM-labeled human 5'-UGAUGAGUGUGAGUAGUA-3' RNA at 100 uM after 5 mins by MST analysis
# [19] = Binding affinity to biotin-labeled human wild type internal ribosome entry site A RNA G-quadruplex by SPR analysis
# [20] = species on record: Homo sapiens; assay: Destabilization of wild type internal ribosome entry site A RNA G-quadruplex in CoCl2 treated human MCF7 cells assessed as decrease in VEGF-A protein expression at 0.1875 to 3 uM after 48 hrs by Western blot analysis
compound,measurement,setting,value
CCN(CC)CCOc1ccc(Nc2nc(-c3ccccc3NC(=O)CCN3CCN(C)CC3)nc3ccccc23)cc1,Selectivity ratio,[1],4
same,Activity,[2],Active
same,Activity,[3],inactive
same,Activity,[4],inactive
same,Activity,[5],<300 mm3
same,Kd,[6],21.2 µM
same,Activity,[7],Dose-dependent effect
same,Activity,[8],inactive
same,Activity,[9],35%
same,Activity,[10],inactive
same,Activity,[11],inactive
same,Activity,[12],inactive
same,Activity,[13],inactive
same,Activity,[14],82.7%
same,Activity,[15],Active
same,Activity,[16],Non-Toxic
same,Kd,[17],4.64 µM
same,Activity,[18],inactive
same,Kd,[19],928 nM
same,Activity,[20],Dose-dependent effect
